Assay results taken from US11084829B2, “Ubiquitin-specific-processing protease 7 (USP7) modulators and uses thereof” (RAPT THERAPEUTICS, INC., priority 2018, dated 2021).

Columns and labels:
Assay type in all cases: cell-based
HCC1937 = experiment: Cell viability (CellTiter-Glo), HCC1937; conditions: Homo sapiens; HCC1937, breast, triple-negative, BRCA1 mutant, p53-mutant
Experimental: (§1) CHP-134 was purchased from Sigma Aldrich, MOLM-13 was purchased from AddexBio, and NB-1 was purchased from Sekisui XenoTech. All other cell lines were purchased from American Type Culture Collection. For all cell lines, identity was confirmed by short tandem repeat profiling and culturing was performed in recommended growth medium. For studies evaluating cellular effects of compound treatment, 250 to 2,000 cells in 40 μl of recommended medium were seeded per well in 384-well plates (Corning 3764). DMSO-solubilized compounds were added in duplicate in a two-fold dilution series using a D300e Digital Dispenser (Hewlett-Packard). Following a 5-day incubation, cell viability was measured using CellTiter-Glo (Promega) following the manufacturer's instructions. Luminescence was measured using a CLARIOstar plate reader (BMG LABTECH) and normalized to that of DMSO-treated cells. IC50 values were determined by non-linear regression using a 4-parameter fit in Prism (GraphPad Software). Inhibitor profiling of the 430-cell line panel was conducted and analyzed similarly.
(§2) In addition to the many p53 wild-type cell lines in the cell line panel that were sensitive to USP7 inhibition, a subset of p53 mutant cell lines that were inhibited by our USP7 inhibitors were identified and are shown in Table 5.

EOL-1 = experiment: Cell viability (CellTiter-Glo), EOL-1; conditions: Homo sapiens, EOL1; EOL-1, AML, p53 wild-type
Experimental: as §1
(§3) USP7 inhibition by the compounds of Examples 31 and 124 reduced the viability of several p53-wild type blood cancer cell lines, including M07e, OCI-AML5 and MOLM13, in vitro as shown in the following Table 3. Idasanutlin was used as a positive control, and as expected these cell lines were also sensitive to this compound.

EBC-1 = experiment: Cell viability (CellTiter-Glo), EBC-1; conditions: Homo sapiens; EBC-1, lung, squamous cell carcinoma, p53-mutant
Experimental: as §1, §2

MOLM13 = experiment: Cell viability (CellTiter-Glo), MOLM13; conditions: Homo sapiens, MOLM-13; MOLM13, AML, p53 wild-type
Experimental: as §1, §3

HCC1806 = experiment: Cell viability (CellTiter-Glo), HCC1806; conditions: Homo sapiens; HCC1806, breast, triple-negative, p53-mutant
Experimental: as §1, §2

IMR-32 = experiment: Cell viability (CellTiter-Glo), IMR-32; conditions: Homo sapiens; IMR-32, neuroblastoma, MYCN amplified, p53 wild-type
Experimental: as §1
(§4) USP7 has been reported to stabilize MYCN (also referred to as MYCN proto-oncogene, a gene that is a member of the MYC family which is over-expressed in a variety of tumors). […]

H526 = experiment: Cell viability (CellTiter-Glo), H526
Experimental: as §1, §2
The effect of pharmacological inhibition of USP7 on the viability of the p53 mutant small cell lung cancer cell line, H526 was further evaluated. […] In contrast, idasanutlin, whose inhibitory effect is dependent on a functional p53 pathway, had no effect.

CHP-134 = experiment: Cell viability (CellTiter-Glo), CHP-134; conditions: Homo sapiens; CHP-134, neuroblastoma, MYCN amplified, p53 wild-type
Experimental: as §1
(§5) USP7 has been reported to stabilize MYCN (also referred to as MYCN proto-oncogene, a gene that is a member of the MYC family which is over-expressed in a variety of tumors). Since MYCN amplification is an established driver mutation in neuroblastoma, the effect of USP7 inhibition on a panel of p53 wild-type, MYCN- or MYC-amplified neuroblastoma cell lines was tested. The USP7 inhibitors of Examples 31 and 124 reduced viability of all three MYCN-amplified and two MYC-amplified neuroblastoma cell lines tested as shown in Table 4. Idasanutlin was used as a positive control, and as expected these cell lines were also sensitive to this compound.

NCI-H820 = experiment: Cell viability (CellTiter-Glo), NCI-H820; conditions: NCI-H820, lung, papillary adenocarcinoma, p53-mutant
Experimental: as §1, §2

LA-N-2 = experiment: Cell viability (CellTiter-Glo), LA-N-2; conditions: LA-N-2, neuroblastoma, MYCN-amplified, p53-mutant
Experimental: as §1, §2

MHCC97-H = experiment: Cell viability (CellTiter-Glo), MHCC97-H; conditions: Homo sapiens, MHCC97H, hepatocellular carcinoma, p53-mutant
Experimental: as §1, §2

JJN-3 = experiment: Cell viability (CellTiter-Glo), JJN-3; conditions: Homo sapiens; JJN-3, multiple myeloma, p53-mutant
Experimental: as §1, §2

NB-1 = experiment: Cell viability (CellTiter-Glo), NB-1; conditions: Homo sapiens, NB1; NB-1, neuroblastoma, MYCN amplified, p53 wild-type
Experimental: as §1, §5

MM.1S = experiment: Cell viability (CellTiter-Glo), MM.1S; conditions: Homo sapiens, MM1.S, p53 wild-type
Experimental: as §1, §3

SK-N-DZ = experiment: Cell viability (CellTiter-Glo), SK-N-DZ; conditions: Homo sapiens, neuroblastoma, MYCN-amplified, p53-mutant
Experimental: as §1, §2

NCI-H929 = experiment: Cell viability (CellTiter-Glo), NCI-H929; conditions: Homo sapiens; NCI-H929, MM, p53 wild-type
Experimental: as §1, §3

NCI-N87 = experiment: Cell viability (CellTiter-Glo), NCI-N87; conditions: Homo sapiens; NCI-N87, gastric, p53-mutant
Experimental: as §1, §2

M07e = experiment: Cell viability (CellTiter-Glo), M07e; conditions: M-07e, AML, p53 wild-type
Experimental: as §1, §3

OCI-AML5 = experiment: Cell viability (CellTiter-Glo), OCI-AML5; conditions: Homo sapiens, OCI-AML-5, p53 wild-type
Experimental: as §1, §3

SH-SY5Y = experiment: Cell viability (CellTiter-Glo), SH-SY5Y; conditions: Homo sapiens, neuroblastoma, MYC amplified, p53 wild-type
Experimental: as §1, §5

HUH-7 = experiment: Cell viability (CellTiter-Glo), HUH-7; conditions: Homo sapiens; HUH-7, hepatocellular carcinoma, p53-mutant
Experimental: as §1, §2

NCI-H2009 = experiment: Cell viability (CellTiter-Glo), NCI-H2009; conditions: Homo sapiens; NCI-H2009, lung, adenocarcinoma, p53-mutant
Experimental: as §1, §2

SK-N-SH = experiment: Cell viability (CellTiter-Glo), SK-N-SH; conditions: Homo sapiens, neuroblastoma, MYC amplified, p53 wild-type
Experimental: as §1, §4

MOLP8 = experiment: Cell viability (CellTiter-Glo), MOLP8; conditions: Homo sapiens, MOLP-8; MOLP8, MM, p53 wild-type
Experimental: as §1, §3

SMILES: COc1cc(C(=O)O)ccc1NC(=O)[C@@H]1N[C@@H](CC(C)(C)C)[C@](C#N)(c2ccc(Cl)cc2F)[C@H]1c1cccc(Cl)c1F [Idasanutlin, reference compound]
- CC50 (HCC1937): 7100 nM
- CC50 (EOL-1): 50 nM
- CC50 (EBC-1): 16200 nM
- CC50 (MOLM13): 20 nM
- CC50 (HCC1806): 7500 nM
- CC50 (IMR-32): 240 nM
- effect on viability of H526 (H526; H526, p53 mutant small cell lung cancer, in vitro): had no effect
- CC50 (H526; Homo sapiens, NCI-H526, H526, lung, small cell, p53-mutant, read-out: CC50): 6500 nM
- CC50 (CHP-134): 10 nM
- CC50 (NCI-H820): 9700 nM
- CC50 (LA-N-2): 5300 nM
- CC50 (MHCC97-H): > 25000 nM
- CC50 (JJN-3): > 25000 nM
- CC50 (NB-1): 100 nM
- CC50 (MM.1S): 20 nM
- CC50 (SK-N-DZ): > 12500 nM
- CC50 (NCI-H929): 200 nM
- CC50 (NCI-N87): 8600 nM
- CC50 (M07e): 30 nM
- CC50 (OCI-AML5): 40 nM
- CC50 (SH-SY5Y): 100 to 500 nM
- CC50 (HUH-7): > 25000 nM
- CC50 (NCI-H2009): > 25000 nM
- CC50 (SK-N-SH): 200 nM
- CC50 (MOLP8): 300 nM
